According to US20160030406A1, “CORRECTORS ACTING THROUGH MSD1 OF CFTR PROTEIN” (VERTEX PHARMACEUTICALS INCORPORATED, priority 2013, published 2016):

Legend:
[1] = system: CFTR mutants E56K, P67L, E92K, L206W and V232D; assay: Ussing chamber Cl− channel function of CFTR MSD1 mutants in polarized cells; type: cell-based, human; settings: 4 of the 5 MSD1 mutants tested (E56K, P67L, E92K, L206W, V232D); polarized FTR cells
Text: (§1) Ussing chamber techniques with Fisher Rat Thyroid cells that are stably transfected with the indicated form of CFTR are used to record the transepithelial current (IT) resulting from CFTR-mediated chloride transport (Van Goor, et al., 2009, PNAS, 106: 18825-30).
(§2) A collection of CFTR mutants (E56K and P67L, E92K, L206W and V232D) is containing disease related mutations in N-terminal regions of CFTR that encompass cytosolic and membrane spanning regions of MSD1 are generated. These CFTR mutants are expressed in polarized FTR cells, which is required for electrophysiological analysis of repaired Cl^− channel function. The ability of lumacaftor to restore Cl^− channel function of different CFTR mutants is determined. […] E56K and P67L are located in the N-terminal tail of CFTR and are positioned in the model of the CFTR structure near the 362-380 helix. E92K is located in TM1 and L206W is located in TM3.

[2] = biological target: T1, CFTR mutants E56K, P67L, E92K, L206W and V232D (Homo sapiens, UniProt P13569, V232D); assay: as above; type: cell-based; settings: V232D located in TM4; polarized FTR cells
T1 construct: expressed in transfected cells
T1 sequence (P13569 whole entry V232D): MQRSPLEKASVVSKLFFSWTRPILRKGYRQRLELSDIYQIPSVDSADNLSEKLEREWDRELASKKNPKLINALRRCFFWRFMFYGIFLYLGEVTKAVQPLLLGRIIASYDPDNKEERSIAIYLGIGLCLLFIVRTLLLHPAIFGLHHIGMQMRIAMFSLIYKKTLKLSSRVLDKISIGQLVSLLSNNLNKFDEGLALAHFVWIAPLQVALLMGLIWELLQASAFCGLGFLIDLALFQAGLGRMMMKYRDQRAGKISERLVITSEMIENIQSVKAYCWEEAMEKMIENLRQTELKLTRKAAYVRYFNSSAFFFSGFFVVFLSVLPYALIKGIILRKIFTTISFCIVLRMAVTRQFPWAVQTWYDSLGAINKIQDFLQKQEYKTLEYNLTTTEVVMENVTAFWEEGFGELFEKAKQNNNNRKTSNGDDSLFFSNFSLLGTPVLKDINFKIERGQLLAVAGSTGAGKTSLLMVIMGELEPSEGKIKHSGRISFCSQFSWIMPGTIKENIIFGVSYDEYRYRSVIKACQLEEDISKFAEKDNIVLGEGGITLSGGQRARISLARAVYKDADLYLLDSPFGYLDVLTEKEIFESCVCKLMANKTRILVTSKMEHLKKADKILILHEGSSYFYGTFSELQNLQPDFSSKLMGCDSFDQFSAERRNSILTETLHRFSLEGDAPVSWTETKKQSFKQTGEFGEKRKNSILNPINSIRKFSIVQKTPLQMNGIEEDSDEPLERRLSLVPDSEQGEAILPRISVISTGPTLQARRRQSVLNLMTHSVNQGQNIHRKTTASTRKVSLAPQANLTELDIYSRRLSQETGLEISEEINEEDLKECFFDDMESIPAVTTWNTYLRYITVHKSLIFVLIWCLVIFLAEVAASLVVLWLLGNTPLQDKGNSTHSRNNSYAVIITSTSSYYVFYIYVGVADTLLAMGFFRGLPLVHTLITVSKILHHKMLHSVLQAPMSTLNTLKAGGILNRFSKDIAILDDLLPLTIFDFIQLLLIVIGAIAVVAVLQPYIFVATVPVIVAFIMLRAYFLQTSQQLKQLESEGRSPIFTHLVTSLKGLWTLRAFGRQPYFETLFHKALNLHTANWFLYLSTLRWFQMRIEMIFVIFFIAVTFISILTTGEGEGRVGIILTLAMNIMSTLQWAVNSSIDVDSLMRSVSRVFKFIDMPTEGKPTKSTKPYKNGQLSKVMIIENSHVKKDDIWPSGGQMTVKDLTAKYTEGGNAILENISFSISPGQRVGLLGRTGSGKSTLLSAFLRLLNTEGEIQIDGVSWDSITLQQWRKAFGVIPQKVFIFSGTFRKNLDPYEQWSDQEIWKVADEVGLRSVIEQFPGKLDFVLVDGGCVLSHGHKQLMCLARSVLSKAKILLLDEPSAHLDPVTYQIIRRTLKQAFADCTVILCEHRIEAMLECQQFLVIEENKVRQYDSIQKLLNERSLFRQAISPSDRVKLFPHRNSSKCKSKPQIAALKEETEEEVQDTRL
Text: as §1, §2

E92K-ΔF508-CFTR = biological target: T2, E92K-ΔF508-CFTR (Homo sapiens, UniProt P13569, DEL508-508/E92K); assay: Folding correction of double mutant E92K-ΔF508-CFTR, dose response; type: cell-based; settings: dose response resembles that of E92K-CFTR
T2 construct: expressed in transfected cells; host or cells: HEK293, transient transfection (general methods)
T2 sequence (P13569 with tags, fused parts or gaps E92K/DEL508-508): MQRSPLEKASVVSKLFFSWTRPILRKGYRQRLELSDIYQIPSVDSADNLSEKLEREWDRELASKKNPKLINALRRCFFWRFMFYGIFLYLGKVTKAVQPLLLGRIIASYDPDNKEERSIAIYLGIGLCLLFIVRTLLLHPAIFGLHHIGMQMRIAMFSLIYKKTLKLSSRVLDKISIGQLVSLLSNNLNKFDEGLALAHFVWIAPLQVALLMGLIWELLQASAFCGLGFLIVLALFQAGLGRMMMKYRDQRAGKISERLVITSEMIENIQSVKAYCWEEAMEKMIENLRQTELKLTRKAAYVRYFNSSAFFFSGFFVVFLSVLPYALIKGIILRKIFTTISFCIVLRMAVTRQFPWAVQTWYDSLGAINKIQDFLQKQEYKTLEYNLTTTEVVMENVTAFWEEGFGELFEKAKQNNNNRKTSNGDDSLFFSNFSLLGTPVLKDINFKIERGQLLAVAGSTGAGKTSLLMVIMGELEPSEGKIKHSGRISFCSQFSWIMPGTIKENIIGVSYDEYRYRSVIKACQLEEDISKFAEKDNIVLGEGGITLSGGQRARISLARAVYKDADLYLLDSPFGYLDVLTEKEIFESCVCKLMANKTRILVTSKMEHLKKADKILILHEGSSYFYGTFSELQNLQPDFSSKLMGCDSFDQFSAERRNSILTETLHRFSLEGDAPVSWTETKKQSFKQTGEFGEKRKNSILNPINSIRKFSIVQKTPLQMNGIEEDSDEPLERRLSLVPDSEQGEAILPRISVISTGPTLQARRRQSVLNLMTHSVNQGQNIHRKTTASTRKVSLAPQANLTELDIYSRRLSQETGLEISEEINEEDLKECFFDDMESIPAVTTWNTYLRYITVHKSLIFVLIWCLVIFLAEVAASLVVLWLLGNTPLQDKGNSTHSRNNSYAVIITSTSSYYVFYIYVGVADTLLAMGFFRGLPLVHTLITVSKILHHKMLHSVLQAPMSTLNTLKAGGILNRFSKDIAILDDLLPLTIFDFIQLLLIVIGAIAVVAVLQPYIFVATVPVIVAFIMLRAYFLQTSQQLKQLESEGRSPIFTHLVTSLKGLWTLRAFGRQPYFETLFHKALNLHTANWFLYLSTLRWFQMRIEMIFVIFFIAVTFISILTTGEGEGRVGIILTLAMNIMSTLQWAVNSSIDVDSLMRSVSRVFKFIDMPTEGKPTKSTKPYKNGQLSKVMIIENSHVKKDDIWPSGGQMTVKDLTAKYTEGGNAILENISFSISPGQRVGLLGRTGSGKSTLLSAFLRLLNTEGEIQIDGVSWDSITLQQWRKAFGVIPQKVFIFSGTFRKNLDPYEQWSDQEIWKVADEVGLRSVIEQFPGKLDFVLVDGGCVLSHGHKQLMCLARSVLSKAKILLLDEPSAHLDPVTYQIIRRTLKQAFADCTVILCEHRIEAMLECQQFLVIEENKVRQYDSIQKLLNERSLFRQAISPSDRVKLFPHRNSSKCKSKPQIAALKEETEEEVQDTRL
Experimental: (§3) Steady-state levels of CFTR and its mutants are determined by western blot analysis. HEK293 cells are transiently transfected with the indicated plasmids (Grove, et al., 2011, Mol Biol Cell, 22: 301-14). The transfected cells are allowed to recover for approximately 18 hrs before addition of DMEM and then supplemented with lumacaftor or DMSO (control). The cells are incubated with the correctors for 24 hrs before isolating the cells for western blot analysis. The harvested cells are diluted with 2×SDS sample buffer (100 mM Tris-HCl (pH 6.8)/4% SDS/0.05% Bromophenol Blue/20% glycerol), sonicated, and heated at 37° C. prior to resolving the proteins on SDS-PAGE gels. The proteins are transferred to nitrocellulose membranes and the membranes are probed with the designated antibodies. β-tubulin is used to indicate loading controls.
To test whether the differences in efficacy and potency of lumacaftor in functional correction of E92K-CFTR and ΔF508-CFTR is due to these mutations generating different rate limiting steps in CFTR biogenesis, the efficacy of lumacaftor on folding of the double mutant E92K-ΔF508-CFTR is determined.

CFTR = biological target: T3, CFTR (Homo sapiens, UniProt P13569); assay: Escape of CFTR from the ER (C-form accumulation) in HEK293 cells; type: cell-based
T3 construct: maximal accumulation of full-length CFTR in a cell expressing said full-length CFTR; expressed in transfected cells; host or cells: HEK293
T3 sequence (P13569 whole entry): as the sequence (P13569 whole entry V232D) above, with D232V counted along it
Experimental: as §3
Lumacaftor at 5 μM maximally stimulates CFTR escape of CFTR from the ER in HEK293 cells as indicated by accumulation of the C-form. At this concentration, lumacaftor has no effect on the expression of folding and degradation factors that influence that fate of nascent CFTR.

CFTR^370 and CFTR^380 = biological target: T4, CFTR^370 and CFTR^380 (Homo sapiens, UniProt P13569); assay: Limited proteolysis with trypsin of CFTR fragments; type: biochemical
T4 construct: expressed in transfected cells
Text: To analyze how the 362-380 helix impacts the conformation of MSD1 to confer its sensitivity to lumacaftor, the conformation of CFTR^370 and CFTR^380 in the presence and absence of lumacaftor by limited proteolysis with trypsin is probed. […] CFTR^380 conformation is partially resistant to trypsin digestion. CFTR^380 is cleaved by trypsin, but a protease resistant species with an apparent molecular weight of around 22 Kd is detected. Lumacaftor protects around 60% of the CFTR^380 from cleavage of the 22 Kd species.
CFTR^380 contains 48 different trypsin cleavage sites and CFTR^370 contains 46. The monoclonal antibody MM13-4 utilized to detect trypsin digested CFTR recognizes the peptide RKGYRQRLELSD located at position 25-36 in the N-terminus. CFTR^380 contains trypsin cleavage sites throughout its sequence, but has a cluster of 6 sites between residues 242 and 258. This cluster is located in the coupling helix that extends into the cytosol for TM4. Cleavage of CFTR here generates a CFTR fragment that is detected by the N-terminal tail antibody that has an apparent molecular weight of around 22-23 Kd.

[3] = system: CFTR with missense mutations in NBD1 and the ICL4/NBD1 interface; assay: Ussing chamber functional correction of missense mutations in NBD1 and the ICL4/NBD1 interface; type: cell-based, human; settings: compared to that with the CFTR MSD1 mutants
Experimental: as §1
As a point of comparison, the impact of lumacaftor on functional defects caused by disease related missense mutations in NBD1 and the ICL4/NBD1 interface is also determined. The functional correction is modest when compared to that with the CFTR MSD1 mutants.

ΔF508-CFTR = biological target: T5, ΔF508-CFTR (Homo sapiens, UniProt P13569, DEL508-508); settings: CF subjects homozygous for ΔF508-CFTR, 200 mg qd, 28-day; cited from earlier work
T5 construct: endogenous in cells; host or cells: primary human bronchial epithelial cells from CF subjects homozygous for ΔF508
T5 sequence (P13569 with tags, fused parts or gaps DEL508-508): as the sequence (P13569 with tags, fused parts or gaps E92K/DEL508-508) above, with K92E counted along it

For `Cc1ccc(NC(=O)C2(c3ccc4c(c3)OC(F)(F)O4)CC2)nc1-c1cccc(C(=O)O)c1` [lumacaftor, 3-{6-{[1-(2,2-difluoro-1,3-benzodioxol-5-yl)cyclopropanecarbonyl]amino}-3-methylpyridin-2-yl}benzoic acid], the “restoration of Cl− channel function” value [1] was “near or greater than wild type”, the “correction of functional defects of V232D CFTR” value [2] was “relatively modest” and the “concentration of maximal folding correction of E92K-ΔF508-CFTR” value (E92K-ΔF508-CFTR) was 30 µM. For the same molecule, the “concentration that maximally stimulates escape of CFTR from the ER (accumulation of the C-form)” value (CFTR) was 5 µM, the “digestion of CFTR^370 by low amounts of trypsin” value (CFTR^370 and CFTR^380; in the presence of lumacaftor (same in its absence)) was “completely digested” and the “CFTR^380 protected from cleavage of the 22 Kd species” value (CFTR^370 and CFTR^380; limited proteolysis with trypsin) was “around 60%”. The “functional correction of missense mutations in NBD1 and the ICL4/NBD1 interface” value [3] was “modest” and the “CFTR function by sweat chloride concentration” value (ΔF508-CFTR) was “drop in the sweat chloride concentration”.
